PubChem BioAssay (NCI)
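A five-concentration, 48-hour dose response in 96-well plates underlies each endpoint, interpolated linearly between surrounding concentrations. At the TGI there is no net growth.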

Key:
Assay in all cases: NCI anticancer screen, dose series, 48 h
[1] = tested on: RXF 393 renal
[2] = tested on: HCT-116 colon
[3] = tested on: U251 CNS
[4] = tested on: EKVX NSCLC
[5] = tested on: SNB-19 CNS
[6] = tested on: SF-295 CNS
[7] = tested on: TK-10 renal
[8] = tested on: PC-3 prostate
[9] = tested on: 786-0 renal
[10] = tested on: DU-145 prostate

Structure (SMILES) | TGI [1] [µM] | TGI [2] [µM] | TGI [3] [µM] | TGI [4] [µM] | TGI [5] [µM] | TGI [6] [µM] | TGI [7] [µM] | TGI [8] [µM] | TGI [9] [µM] | TGI [10] [µM]
COc1cc(C2c3cc4c(cc3[C@@H](Nc3ccc5c(c3)OCO5)C3COC(=O)[C@H]23)OCO4)cc(OC)c1O (stereo partly drawn) | 6.15 | 15.7 | 1.74 | 16.3 | 30.1 | 5.3 | – | – | – | –
CC1(C)N=C2C(=O)c3c([nH]c4ccccc34)[C@]3(C)CCC1CC23 (stereo partly drawn) | > 6.25 | > 6.25 | > 6.25 | > 6.25 | – | > 6.25 | > 6.25 | > 6.25 | > 6.25 | > 6.25
COC(=O)[C@H](Cc1ccccc1)NC(=O)N(CCC#N)CCN(C(=O)N[C@@H](Cc1ccccc1)C(=O)OC)c1ccccc1 | 37.7 | 82.5 | – | 73.2 | > 100 | > 100 | 41.6 | > 100 | 50.8 | 74.5
CN(C)CCCNC(=O)c1c(O)c2ccccc2n(C)c1=O | > 100 | > 100 | > 100 | > 100 | – | > 100 | > 100 | > 100 | > 100 | > 100
CN1N=C(c2ccncc2)OC1c1ccccc1F (stereo not drawn) | > 100 | > 100 | > 100 | > 100 | > 100 | > 100 | > 100 | > 100 | > 100 | > 100
COc1cc(C(O)c2ccc3c(c2)OCO3)cc(OC)c1OC (stereo not drawn) | – | > 100 | > 100 | > 100 | > 100 | > 100 | > 100 | > 100 | > 100 | > 100
COC(=O)C1(O)C(c2ccccc2)=NC2(C)CCCC21 (stereo not drawn) | > 100 | > 100 | > 100 | – | > 100 | > 100 | > 100 | > 100 | > 100 | > 100
CC(=O)n1nc(-c2ccccc2)n(/N=C/c2ccc([N+](=O)[O-])o2)c1=O | 10.4 | 3.71 | 33.4 | > 49.1 | 36.9 | 47.9 | 25.5 | 30.9 | 7.97 | 16.7
Cc1cc(C)c(/C=C(\C(=C/c2c(C)cc(C)cc2C)[N+](=O)[O-])[N+](=O)[O-])c(C)c1 | 90.4 | > 100 | > 100 | > 100 | > 100 | > 100 | > 100 | > 100 | – | > 100
COc1ccc(/C=N/n2c(C)nc3c(sc(=S)n3-c3ccccc3)c2=O)cc1 | – | > 100 | > 100 | – | > 100 | > 100 | > 100 | – | – | –
C/C(=C\CO)CC/C=C(\C)CNc1ccc([N+](=O)[O-])cc1 | > 100 | > 100 | > 100 | > 100 | > 100 | > 100 | 46.7 | 66.2 | > 100 | > 100
COc1cccc2c1OCC1Cc3ccccc3OC21 (stereo not drawn) | – | > 100 | > 100 | > 100 | – | > 100 | 72.8 | > 100 | > 100 | > 100
